The record followed here is PubChem BioAssay (NCI).

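These data come from cells grown in 96-well plates and exposed to compound for 48 hours at five concentrations. GI50: concentration for 50% inhibition of growth. The concentration for full growth arrest is given as TGI.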 Some results are limits rather than exact numbers.

Assay in all cases: inhibition of tumour cell growth, NCI panel, 48 h
Test [1] concerns A549 NSCLC.
Test [2] relates to COLO 205 colon.
Test [3] deals with NCI-H226 lung.
Test [4] concerns NCI-H460 lung.
For test [5], the system named is OVCAR-4 ovarian.
The test system of test [6] is T-47D breast.
The subject of test [7] is SW-620 colon.
Test [8] relates to TK-10 renal.
The test system of test [9] is RPMI-8226 leukemia.
Test [10] concerns SK-MEL-28 melanoma.

Consider `COc1cc[nH]c1/C=C1\C(=O)Nc2ccc(F)c(I)c21`, for which the GI50 in test [1], in [2], in test [3], in [4], in [5] and in test [6] was above 25 µM each time. Besides, the GI50 in test [7], in test [8], in test [9] and in [10] was above 25 µM each time. The TGI in [1], in [2], in test [3], in [4], in test [5] and in test [6] was above 25 µM throughout. For the same molecule, the TGI in test [7], in test [8], in test [9] and in test [10] was above 25 µM each time.

As to `CCCCCCCCCCCCCC(=O)CBr`, the TGI in [1] was 50.7 µM; in [2], 30.1 µM; in [3] it was 35.1 µM; in test [4], 35.3 µM; in test [5], 28.8 µM; in test [6], 18.7 µM. In addition, the TGI in test [7] was found to be 30.2 µM; in [8] it was 29.7 µM; in test [9], 4.24 µM; in test [10], 30.7 µM.

`O=C1C(Cl)=C(Nc2cccc(O)c2)C(=O)N1c1cc(Cl)c(Cl)cc1Cl`: the GI50 is 21.7 µM in test [1]; 18 µM in test [2]; 14.7 µM in test [3]; 18 µM in test [4]; 22.7 µM in test [5]; 42.1 µM in test [6]. Besides, the GI50 in test [7] is 15.2 µM; in test [8], 23.8 µM; in [9], 14.4 µM; in test [10], 18.5 µM. Also, the TGI in [1] was 47.5 µM; in test [2] it was 38 µM; in [3], 40.9 µM; in [4] it was 38.4 µM; in test [5], 51.8 µM; in test [6], above 100 µM. Also, the TGI was 28.9 µM in test [7], 48.6 µM in test [8], 45.8 µM in test [9] and 36.3 µM in test [10].

As to `C[C@@H]1CN(CC(=O)N2CC(C)(C)c3nc(CO)c(Cc4ccc(F)cc4)cc32)[C@@H](CN2CCOC[C@H]2C)CN1`, the GI50 is above 100 µM in test [1]; 21.3 µM in test [2]; above 100 µM in test [3]; 45.9 µM in test [4]; 20.6 µM in test [5]; 17.2 µM in [6]. Besides, the GI50 in test [7] was above 100 µM; in test [8] it was above 100 µM; in [9], 21.9 µM; in test [10] it was 18.6 µM. Further, the TGI in test [1] is above 100 µM; in test [2], 41.4 µM; in test [3], above 100 µM; in [4] it was above 100 µM; in test [5] it was above 100 µM; in test [6] it was 47.8 µM. In addition, the TGI in [7] was above 100 µM; in test [8], above 100 µM; in test [9], 48 µM; in test [10], 37.5 µM.

For the molecule `C=C1C(=O)O[C@H]2[C@H]1CC/C(COC(=O)N1CCC[C@H]1C(=O)Nc1ccc(OC)c(C(N)=O)c1O)=C\CC[C@@]1(C)O[C@@H]21`, the GI50 was 14.7 µM in test [1]; 1.6 µM in test [2]; 2.24 µM in [3]; 11.4 µM in test [4]; 2.88 µM in test [5]; 2.42 µM in test [6]. The GI50 in test [7] is 1.64 µM; in test [8], 1.92 µM; in test [9] it was 1.93 µM; in test [10], 2.87 µM. For the same molecule, the TGI in test [1] amounted to 35.1 µM; in [2] it was 3.28 µM; in test [3], 7.12 µM; in test [4], 29 µM; in test [5], 12.9 µM; in test [6], 6.7 µM. Moreover, the TGI in test [7] stood at 4.01 µM; in test [8], 7.16 µM; in test [9], 4.87 µM; in test [10], 10.2 µM.

Turning to `CCN(Cc1ccccc1OC)c1ccc(CO)c(Cl)c1`, the GI50 in test [1] is 4.26 µM; in test [2], 4.81 µM; in test [3], 0.0487 µM; in [4], 0.511 µM; in test [5] it was 0.518 µM; in test [6], 0.091 µM. The GI50 in test [7] was 2.33 µM; in [8] it was 0.0512 µM; in [9] it was 2.67 µM; in test [10], 10.3 µM. Moreover, the TGI in [1] was determined as 19.8 µM; in test [2], 14.4 µM; in test [3], 0.179 µM; in test [4], 11.6 µM; in test [5], 10.3 µM; in test [6], 0.685 µM. Besides, the TGI was 17.5 µM in test [7], 0.372 µM in test [8], 21.5 µM in [9] and 24.8 µM in test [10].

For `CCCCN(Cc1ccc(F)cc1)c1ccc(CO)c(Cl)c1`, the GI50 in [1] was 7.38 µM; in [2], 14 µM; in [3] it was 0.146 µM; in test [4], 2.46 µM; in [5] it was 2.54 µM; in test [6], 1.27 µM. Further, the GI50 in test [7] was 6.11 µM; in test [8], 0.319 µM; in [9], 10.1 µM; in test [10], 14.8 µM. In addition, the TGI in test [1] worked out at 21.6 µM; in [2], 27.2 µM; in test [3] it was 0.318 µM; in test [4], 13.4 µM; in test [5] it was 13.6 µM; in test [6] it was 10.2 µM. Further, the TGI was 20.7 µM in test [7], 1.89 µM in test [8], 36.3 µM in [9] and 28.4 µM in test [10].

For `CC(=O)[O-].CC(=O)[O-].[NH2-].[Pt+2].c1ccc2cnccc2c1`, the GI50 was 0.147 µM in test [1]; 24.7 µM in test [2]; 47.4 µM in test [3]; 26.2 µM in test [4]; 22.3 µM in test [5]; 1.61 µM in test [6]. Also, the GI50 in test [7] was 16.2 µM; in test [8], 15.5 µM; in [9], 27.7 µM; in test [10] it was 52.6 µM. For the same molecule, the TGI is 15.7 µM in [1]; above 100 µM in [2]; above 100 µM in test [3]; above 100 µM in test [4]; above 100 µM in test [5]; 24.7 µM in [6]. The TGI is 38.3 µM in [7], 90.7 µM in test [8], above 100 µM in [9] and above 100 µM in [10].
